Two compounds from US20260234568A1, “TUMOR STORAGE AND CELL CULTURE COMPOSITIONS” (Iovance Biotherapeutics, Inc., priority 2021, published 2026) can be followed below.

For series [1], the system named is Pre-REP TIL. The class given is cell-based. The protocol: Phase 1: Small Scale Evaluation of Various Antibiotics in shipping medium and CM1 were conducted in 2 separate rounds using 2 different tumors as shown in Tables 53 and 54. The cultures were terminated after the Pre-REP. All the overnight incubations in HTS included 2.5 μg/mL Amphotericin B (or 10 μg/mL for the “high AmpB concentration” condition) and 50 μg/mL gentamicin
All the test and control conditions were tested in quadruplicates. Total Viable Cells and % Viability was recorded on Day 11 of Pre-REP.

Series [2] relates to S. aureus. Nature of the series: Antibiotics on growth of bacteria in culture media (HTS then CM1). It is filed as cell-based. To be noted: S. aureus (strain 1), HTS 24 hours at 2-8° C., then CM1 11 days, Gentamicin 50 μg/mL, Vancomycin 100 μg/mL. As to the method: In these experiments, the following antibiotics were added to Gram+bacteria S. aureus and E. faecalis in hypothermosol (HTS) at three different concentrations of bacteria: • a. Gentamicin (50 μg/mL) • b. […] Vancomycin (100 μg/mL)

The test system of series [3] is E. faecalis. The series is described as above. It is filed as cell-based. To be noted: HTS 24 hours at 2-8° C., then CM1 11 days, Gentamicin 50 μg/mL, Vancomycin 100 μg/mL.
Description: Additional experiments were performed to test the ability of vancomycin to prevent growth of vancomycin sensitive bacteria in culture medium. In these experiments, the following antibiotics were added to Gram+bacteria S. aureus and E. faecalis in hypothermosol (HTS) at three different concentrations of bacteria: • a. Gentamicin (50 μg/mL) • b. Gentamicin (50 μg/mL)+Vancomycin (100 μg/mL) • c. Vancomycin (100 μg/mL)
The mixtures were incubated at 24 hours at 2-8° C. and then 1 mL of each of the samples were added to 20 mL of CM1 medium in the same concentrations of antibiotics above. The mixtures were incubated for 11 days and bacterial growth was visually assessed.
Series [4] has as its system E. faecalis. Description: Antibiotics on bacterial growth of inoculated tissue fragments (HTS, wash, CM1). The class given is cell-based. Conditions: for bacterial growth, visually assessed: inoculated tissue fragments, washed 3×, 11 days. The protocol: Gentamicin (50 μg/mL) • b. […] Vancomycin (100 μg/mL)
Series [5] relates to S. aureus. To be noted: for bacterial growth, visually assessed: S. aureus (strain 1), inoculated tissue fragments, washed 3×, 11 days.
Description: Additional experiments were performed to test the ability of vancomycin to prevent growth of vancomycin sensitive bacteria in culture medium. In these experiments, tissue fragments were inoculated in HTS with three different loads of S. aureus and E. faecalis bacteria and the following antibiotics: • a.
The 6 HTS inoculates (iHTS) shown were incubated at 24 hours at 2-8° C. and washed 3× with tumor wash buffer with the same concentrations of antibiotics above. The tumor samples were incubated for 11 days and bacterial growth was visually assessed.
Series [6] relates to Pre-REP TIL. Description: Phase II full scale Pre-REP: extended phenotype of Day 11 samples. Conditions: 100 μg/mL in tumor shipping medium and CM1 Pre-REP media.
Description: The received tumor was separated into 2 equal portions and stored overnight similarly to the overnight incubation in phase I of testing. The chosen antibiotic condition was tested against Gentamicin Sulfate control at full scale Pre-REP according to the Day 0 Gen 2 Batch Record. TVC, viability, identity, function, and extended phenotyping data were obtained.
Both antibiotics were tested in shipping medium and CM1 at a concentration of 100 μg/mL.

Each structure is given as a SMILES string. Read-outs that look alike come from different tables or passages of the source.

With `C[C@@H]1[C@H](O)[C@@H](C)/C=C/C=C/C=C/C=C/C=C/C=C/C=C/[C@H](O[C@@H]2O[C@H](C)[C@@H](O)[C@H](N)[C@@H]2O)C[C@@H]2O[C@](O)(C[C@@H](O)C[C@@H](O)[C@H](O)CC[C@@H](O)C[C@@H](O)CC(=O)O[C@H]1C)C[C@H](O)[C@H]2C(=O)O` [amphotericin B], the “cytotoxicity / impact on Pre-REP TIL cell growth (in words)” value in the series on Pre-REP TIL [1] (Day 11 of Pre-REP, quadruplicates, with 50 μg/mL gentamicin) was “did not appear cytotoxic”.

With `CN[C@H](CC(C)C)C(=O)N[C@H]1C(=O)N[C@@H](CC(N)=O)C(=O)N[C@H]2C(=O)N[C@H]3C(=O)N[C@H](C(=O)N[C@H](C(=O)O)c4cc(O)cc(O)c4-c4cc3ccc4O)[C@H](O)c3ccc(c(Cl)c3)Oc3cc2cc(c3O[C@@H]2O[C@H](CO)[C@@H](O)[C@H](O)[C@H]2O[C@H]2C[C@](C)(N)[C@H](O)[C@H](C)O2)Oc2ccc(cc2Cl)[C@H]1O` [vancomycin], the “cytotoxicity / impact on Pre-REP TIL cell growth (in words)” value in the series on Pre-REP TIL [1] is given as “least cytotoxicity”. Moreover, the “bacterial growth, visually assessed” value was “inhibited grown” in the series on S. aureus [2]; “No Growth” with S. aureus [2] (listed as Vanco); “inhibited grown” with E. faecalis [3]; “No Growth” in the series with E. faecalis [3] (listed as Vanco); “No Growth” with E. faecalis [4] (Bacterial Load High); “No Growth” in the series with E. faecalis [4] (Bacterial Load Low). For the same compound, the “bacterial growth, visually assessed” value in the series on E. faecalis [4] (Bacterial Load Med), with S. aureus [5] (Bacterial Load High), in the series with S. aureus [5] (Bacterial Load Low) and with S. aureus [5] (Bacterial Load Med) was “No Growth” throughout. For the same compound, the “bacterial growth (summary in words)” value with E. faecalis [4] (all the bacterial loads tested) is “no observed growth”; in the series with S. aureus [5] (S. aureus, all the bacterial loads tested) it was “no observed growth”. In addition, the “effect on the Pre-REP cell product (TVC, Viability, Identity, Function, Extended Phenotyping; in words)” value with Pre-REP TIL [6] was “no deleterious effect”.
